Experimental data reported in publication PMC10823733, “Promising antibacterial efficacy of arenicin peptides against the emerging opportunistic pathogen Mycobacterium abscessus” (Journal of Biomedical Science, 2024).
Read-outs that look alike come from different tables or passages of the source. Positions of bridges follow the written chain, without caps; N, C: chain ends. Non-standard residues stand in square brackets, D forms with d. Residues, ends and D or L forms follow the SMILES beside them. Abu = CC[C@H](N)C(=O)O

Tests used:
[1] = format: cell-based, human
Description: (§1) The toxicity of each peptide was evaluated on human cell lines using a resazurin assay as previously described. Human lung epithelial cells BEAS-2B (ATCC CRL-9609), liver cells HepG2 (ATCC HB-8065), and kidney cells A498 (ATCC HTB-44) were used. All cells were cultured in Dulbecco's modified essential medium (DMEM) supplemented with 10% heat-inactivated fetal calf serum (FBS, Thermo Fisher Scientific), and 1% L-glutamine (Thermo Fisher Scientific) (DMEM^FBS) at 37 °C in a 5% CO2 incubator to subconfluent concentrations. Cells were detached with trypsin–EDTA solution (Thermo Fisher Scientific), and around 1 × 10^4 cells/well were seeded in 96-well flat-bottom microplates (Greiner Bio-One) with a lid, and cultured for additional 48–72 h at 37 °C and 5% CO2 until cell confluence. The medium was removed, and 100 µL of serial two-fold dilutions of the peptides in DMEM^FBS were added to each well. Following a 48 h-incubation period at 37 °C and 5% CO2, cell viability was evaluated using the resazurin assay as described above. Fluorescence of the resazurin metabolite resorufin (λex/λem = 530/590 nm) was measured after 2 h incubation at 37 °C and 5% CO2 in the dark, with a microplate reader (Biotek, Synergy Mx, Colmar, France). The cytotoxic concentration of peptide leading to 50% cell death as compared to the control was defined as the CC50, and was determined by fitting the RFU% sigmoidal dose–response curves in Kaleidagraph 4.2 software (Synergy Software). All experiments were conducted in triplicate.

A498 cells = test: Cytotoxic assay on human cells (resazurin); format: cell-based
Description: as §1

human erythrocytes = format: cell-based; details: for HC10 / HC50: red cells of human, 1 h
Description: The hemolytic activity of each peptide was determined as previously described. Briefly, human erythrocytes (red blood cells, hRBC; Divbioscience, Ulvenhout, Netherlands) were washed 2-times with sterile phosphate buffered saline (PBS; Thermo Fisher Scientific) and pelleted by centrifugation at 800 rpm for 5 min; then resuspended in DMEM^FBS to a final erythrocyte concentration of 8% (v/v). Then, 100 µL of this hRBC solution was distributed to each well of sterile 96-well flat-bottom microplates (Greiner Bio-One) containing serial two-fold dilutions of arenicin, arenicin-Abu derivative or controls in DMEM^FBS to a final volume of 200 µL. After 1 h incubation at 37 °C, microplates were centrifuged at 800 rpm for 5 min. Then, 100 µL of supernatant were carefully transferred to a new 96-well microplate, and OD405 corresponding to the release of hemoglobin was measured using a microplate reader (Biotek, Synergy Mx, Colmar, France). DMEM^FBS and Triton-X100 at 0.1% (v/v) were used as negative (i.e., 0% hemolysis) and positive (i.e., 100% hemolysis) controls, respectively. The concentration of peptide leading to 10% and 50% of hemolysis compared to the positive control was defined as the HC10 and HC50, respectively, and was determined by fitting the dose–response curves in Kaleidagraph 4.2 software (Synergy Software). All experiments were done in triplicate.

[2] = format: cell-based, human; remark: listed apart in the source
Description: as §1

M. abscessus S and R = format: cell-based, Mycobacterium abscessus
Description: Mycobacterium abscessus S and R strains (CIP 104536^ T) were grown in Middlebrook 7H9 medium supplemented with 0.05% (v/v) Tween 80, 0.2% (v/v) glycerol and 10% (v/v) oleic acid–albumin–dextrose–catalase (OADC enrichment; BD Difco) (7H9-S^OADC) at 37 °C under stirring (200 rpm). We used Ar-1 (RWC^3VYAYVRVRGVLVRYRRC^20W) and Ar-1-Abu, in which the cysteines in position 3 and 20 were replaced by alpha-amino-n-butyric acid (Abu) residues. […]
For determining the antimicrobial activity of the different peptides, the Middlebrook 7H9 broth microdilution method was used in sterile 96-well flat-bottom Greiner Bio-One polypropylene microplates with lid (Thermo Fisher Scientific) using the resazurin microtiter assay (REMA). […] Fluorescence of the metabolite resorufin (λex/λem = 530/590 nm) was measured using a Tecan Spark 10 M ™ multimode microplate reader (Tecan Group Ltd, France). Relative fluorescence units (RFU) were defined as: RFU% = (test well FU/mean FU of control B wells) × 100. MIC50 and MIC90 values were determined by fitting the RFU% sigmoidal dose–response curves in Kaleidagraph 4.2 software (Synergy Software, Reading, PA). […]

M. abscessus R = test: Induction of resistance assay; format: cell-based, Mycobacterium abscessus; details: after 20–30 days of exposure
Description: (§2) Induction of bacterial resistance by Ar-1 was achieved by exposure of M. abscessus S and R to Ar-1 or to the control antibiotic clarithromycin (CLR) for 42 consecutive days, and with repeated broth microdilution susceptibility testing and subsequent MIC determination. After each MIC determination, the well containing the highest concentration of Ar-1 or CLR that allows bacterial growth was diluted 1:1000 in 7H9-S^OADC and used as inoculum for the next MIC assay with fresh amounts of Ar-1 or CLR.

M. abscessus S = test: Induction of resistance assay; format: cell-based, Mycobacterium abscessus; details: after 20–30 days of exposure
Description: as §2

For `CC[C@H](NC(=O)[C@H](CCCNC(=N)N)NC(=O)[C@H](CCCNC(=N)N)NC(=O)[C@H](Cc1ccc(O)cc1)NC(=O)[C@H](CCCNC(=N)N)NC(=O)[C@@H](NC(=O)[C@H](CC(C)C)NC(=O)[C@@H](NC(=O)CNC(=O)[C@H](CCCNC(=N)N)NC(=O)[C@@H](NC(=O)[C@H](CCCNC(=N)N)NC(=O)[C@@H](NC(=O)[C@H](Cc1ccc(O)cc1)NC(=O)[C@H](C)NC(=O)[C@H](Cc1ccc(O)cc1)NC(=O)[C@@H](NC(=O)[C@H](CC)NC(=O)[C@H](Cc1c[nH]c2ccccc12)NC(=O)[C@@H](N)CCCNC(=N)N)C(C)C)C(C)C)C(C)C)C(C)C)C(C)C)C(=O)N[C@@H](Cc1c[nH]c2ccccc12)C(=O)O` [Ar-1-Abu] (H-RW[Abu]VYAYVRVRGVLVRYRR[Abu]W-OH), the CC50 [1] was over 100 µM, the “toxicity towards kidney A498 cells (in words)” value (A498 cells) was “nontoxic” and the “hemolytic activity on human erythrocytes (in words, considering HC10)” value (human erythrocytes) was “totally inactive”. The HC10 (human erythrocytes) was over 100 µM, the HC50 (human erythrocytes) was over 100 µM and the CC50 [2] was over 100 µM.

With `CC(C)C[C@@H]1NC(=O)[C@H](C(C)C)NC(=O)CNC(=O)[C@H](CCCNC(=N)N)NC(=O)[C@H](C(C)C)NC(=O)[C@H](CCCNC(=N)N)NC(=O)[C@H](C(C)C)NC(=O)[C@H](Cc2ccc(O)cc2)NC(=O)[C@H](C)NC(=O)[C@H](Cc2ccc(O)cc2)NC(=O)[C@H](C(C)C)NC(=O)[C@@H](NC(=O)[C@H](Cc2c[nH]c3ccccc23)NC(=O)[C@@H](N)CCCNC(=N)N)CSSC[C@@H](C(=O)N[C@@H](Cc2c[nH]c3ccccc23)C(=O)O)NC(=O)[C@H](CCCNC(=N)N)NC(=O)[C@H](CCCNC(=N)N)NC(=O)[C@H](Cc2ccc(O)cc2)NC(=O)[C@H](CCCNC(=N)N)NC(=O)[C@H](C(C)C)NC1=O` [Ar-1] (H-RWCVYAYVRVRGVLVRYRRCW-OH; disulfide 3-20) the CC50 [1] was over 100 µM, the “toxicity towards kidney A498 cells (in words)” value (A498 cells) was “nontoxic” and the HC10 (human erythrocytes) was 20.2 ± 1.8 µM. The HC50 (human erythrocytes) was over 100 µM, the “mean MIC50” value (M. abscessus S and R) was 11.5 ± 1.0 µM and the CC50 [2] was over 100 µM.

For `CC[C@H]1OC(=O)[C@H](C)[C@@H](O[C@H]2C[C@@](C)(OC)[C@@H](O)[C@H](C)O2)[C@H](C)[C@@H](O[C@@H]2O[C@H](C)C[C@H](N(C)C)[C@H]2O)[C@](C)(OC)C[C@@H](C)C(=O)[C@H](C)[C@@H](O)[C@]1(C)O` [CLR, clarithromycin], the “increase in MIC90 values” (M. abscessus R) was 32 fold and the “increase in MIC90 values” (M. abscessus S) was 32 fold.
